Active and inactive are the calls of the source. No cut-off for these calls is given here.
Experiments:
[1] = molecular target: Rhodesain (Trypanosoma brucei rhodesiense) (UniProt Q95PM0); assay: Inhibition of Trypanosoma brucei rhodesiense rhodesain at 140 uM
[2] = system: Trypanosoma brucei brucei; assay: Trypanocidal activity against Trypanosoma brucei brucei after 48 hrs; format: functional, organism-based
J774 [3] = assay: Cytotoxicity against J774.1 cell line after 72 hrs; format: functional, cell-based; conditions: Mus musculus, J774, 72 h
J774 [4] = assay: Selectivity index, IC50 for J774.1/IC50 for Trypanosoma brucei brucei; format: functional
Rhodesain [5] = molecular target: T1, Rhodesain (Trypanosoma brucei rhodesiense, UniProt Q95PM0); assay: Inhibition of Trypanosoma brucei rhodesiense rhodesain
T1 sequence (Q95PM0 whole entry): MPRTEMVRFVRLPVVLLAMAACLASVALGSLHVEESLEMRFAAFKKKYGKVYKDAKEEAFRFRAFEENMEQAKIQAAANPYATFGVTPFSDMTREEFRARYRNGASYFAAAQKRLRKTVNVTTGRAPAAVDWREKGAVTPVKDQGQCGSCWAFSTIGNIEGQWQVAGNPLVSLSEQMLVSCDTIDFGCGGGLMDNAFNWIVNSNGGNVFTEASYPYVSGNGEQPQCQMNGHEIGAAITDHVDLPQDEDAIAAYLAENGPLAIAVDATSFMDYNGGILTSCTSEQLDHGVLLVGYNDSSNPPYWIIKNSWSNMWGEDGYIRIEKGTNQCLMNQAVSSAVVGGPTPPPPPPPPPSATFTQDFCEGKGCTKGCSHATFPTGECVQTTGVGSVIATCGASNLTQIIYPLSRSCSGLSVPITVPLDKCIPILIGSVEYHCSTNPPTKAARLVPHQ

J774 [6] = assay: Cytotoxicity against J774.1 cell line after 48 hrs; format: functional, cell-based; conditions: Mus musculus, J774, 48 h
Rhodesain [7] = molecular target: T1, Rhodesain; assay: Inhibition of Trypanosoma brucei rhodesiense rhodesain in presence of 31.6 uM substrate Cbz-Phe-Arg-AMC
[8] = molecular target: Rhodesain (Trypanosoma brucei rhodesiense) (UniProt Q95PM0); assay: Inhibition of Trypanosoma brucei rhodesiense rhodesain at 200 uM

Rhodesain (Trypanosoma brucei rhodesiense), sequence (Q95PM0 1-450): as the sequence (Q95PM0 whole entry) above

inhibition [1] | SMILES | IC50 [2] [µM] | IC50 (J774 [3]) [µM] | Ratio IC50 (J774 [4]) | Ki (Rhodesain [5]) [µM] | IC50 (J774 [6]) [µM] | Ki (Rhodesain [7]) [µM] | inhibition [8] [%]
inactive | C[C@H](NC(=O)[C@@H](Cc1ccccc1)NC(=O)OC(C)(C)C)C(=O)N1[C@H](C(=O)OCc2ccccc2)[C@H]1C(=O)OCc1ccccc1 | 34.3 | 43.7 | 1.3 | – | – | – | –
– | CCOC(=O)[C@@H]1[C@@H](C(=O)OCC)N1C(=O)[C@@H]1CN1C(=O)[C@H](CC(C)C)NC(=O)OC(C)(C)C | 25.7 | – | 1.9 | 0.3 | 50 | 0.36 | –
– | Nc1nc(N)nc(Nc2ccc([As]3SCC(CO)S3)cc2)n1 (stereo not drawn) [MELARSOPROL] | 0.0026 | – | 1653 | – | 4.3 | – | 94.3
